Molecules are shown by their SMILES.

This series can be described thus: Residual parent lipid levels in the liver of mice (hEPO mRNA LNP). It counts as in vivo. Conditions: CD-1 mice.
Consider `CCCCCCCCC(CCCCCCCC)OC(=O)CCCCCCCN(CCO)CCCCCCCC(=O)OCCC(CCCC)CCCCCC` (stereo not shown) [Compound 7], for which the “Parent Lipid Remaining at 24 h” value is recorded as 0.3 ± 0.2 nmol/g liver tissue.

For the molecule `CCCCCCCCC(CCCCCCCC)COC(=O)CCCCCN(CCCCCCCC(=O)OC(CC)CCCCCCCC)CCCNc1c(NC)c(=O)c1=O` (stereo not shown) [Compound 14], the “Parent Lipid Remaining at 24 h” value was 56 ± 6 nmol/g liver tissue.

`CCCCCCCCC(CCCCCC)COC(=O)CCCCCN(CCCCCCCC(=O)OC(CC)CCCCCCCC)CCCNc1c(NC)c(=O)c1=O` (stereo not shown) [Compound 15]: the “Parent Lipid Remaining at 24 h” value came to 51 ± 4 nmol/g liver tissue.

With `CCCCCCCCC(CCCCCCCC)OC(=O)CCCCCCCN(CCCCCCCC(=O)OCC(CCCCC)CCCCCCC)CCCNc1c(NC)c(=O)c1=O` (stereo not shown) [Compound 16], the “Parent Lipid Remaining at 24 h” value is 77 ± 3 nmol/g liver tissue.

As to `CCCCCCCCC(CCCCCCCC)OC(=O)CCCCCCCN(CCCCCCCC(=O)OCCC(CCCCCC)C(C)C)CCCNc1c(NC)c(=O)c1=O` (stereo not shown) [Compound 17], the “Parent Lipid Remaining at 24 h” value worked out at 35 ± 5 nmol/g liver tissue.

Take `CCCCCCCCC(CCCCCCCC)OC(=O)CCCCCCCN(CCCCCCCC(=O)OCC(CCCCCCC)C(C)C)CCCNc1c(NC)c(=O)c1=O` (stereo not shown) [Compound 19]: the “Parent Lipid Remaining at 24 h” value came out at 73 ± 6 nmol/g liver tissue.

Regarding `CCCCCCCCC(CCCCCCCC)OC(=O)CCCCCCCN(CCCCCCCC(=O)OCCC(CCCC)CCCCCC)CCCNc1c(NC)c(=O)c1=O` (stereo not shown) [Compound 20], the “Parent Lipid Remaining at 24 h” value worked out at 65 ± 5 nmol/g liver tissue.

Regarding `CCCCCCCCC(CCCCCCCC)OC(=O)CCCCCCCN(CCO)CCCCCCCC(=O)OCCC(CCCC)CCCC` [Compound 22, 3-Butylheptyl 8-((8-(heptadecan-9-yloxy)-8-oxooctyl)(2-hydroxyethyl)amino)octanoate], the “Parent Lipid Remaining at 24 h” value is reported as less than 0.1 nmol/g liver tissue.

Take `CCCCCCC(CCCCCC)CCOC(=O)CCCCCCCN(CCO)CCCCCCCC(=O)OCCC(CCCCCC)CCCCCC` [Compound 23]: the “Parent Lipid Remaining at 24 h” value amounted to 24 ± 3 nmol/g liver tissue.

As for `CCCCCCCCC(CCCCCCCC)OC(=O)CCCCCCCN(CCO)CCCCCCCC(=O)OCCC(CCCCC)CCCCC` [Compound 24], the “Parent Lipid Remaining at 24 h” value worked out at 3 ± 1 nmol/g liver tissue.

For the molecule `CCCCCC(CCCCC)CCOC(=O)CCCCCCCN(CCO)CCCCCCCC(=O)OCCC(CCCCC)CCCCC` [Compound 25], the “Parent Lipid Remaining at 24 h” value is reported as 0.1 ± 0.04 nmol/g liver tissue.

Turning to `CCCCCCCCC(CCCCCCCC)OC(=O)CCCCCCCN(CCCCCCCC(=O)OCCC(CCCCCC)CCCCCC)CCCNc1c(NC)c(=O)c1=O` [Compound 26], the “Parent Lipid Remaining at 24 h” value is given as 141 ± 15 nmol/g liver tissue.

As for `CCCCCCCCC(CCCCCCCC)OC(=O)CCCCCCCN(CCCCCCCC(=O)OCCC(CCCC)CCCC)CCCNc1c(NC)c(=O)c1=O` [Compound 27, 3-Butylheptyl 8-((8-(heptadecan-9-yloxy)-8-oxooctyl)(3-((2-(methylamino)-3,4-dioxocyclobut-1-en-1-yl)amino)propyl)amino)octanoate], the “Parent Lipid Remaining at 24 h” value is 27 ± 4 nmol/g liver tissue.

On to `CCCCCCC(CCCCCC)CCOC(=O)CCCCCCCN(CCCCCCCC(=O)OCCC(CCCCCC)CCCCCC)CCCNc1c(NC)c(=O)c1=O` [Compound 28], for which the “Parent Lipid Remaining at 24 h” value amounted to 58 ± 7 nmol/g liver tissue.

Turning to `CCCCCCCCC(CCCCCCCC)OC(=O)CCCCCCCN(CCCCCCCC(=O)OCCC(CCCCC)CCCCC)CCCNc1c(NC)c(=O)c1=O` [Compound 29], the “Parent Lipid Remaining at 24 h” value came out at 66 ± 16 nmol/g liver tissue.

With `CCCCCC(CCCCC)CCOC(=O)CCCCCCCN(CCCCCCCC(=O)OCCC(CCCCC)CCCCC)CCCNc1c(NC)c(=O)c1=O` [Compound 30, Bis(3-pentyloctyl) 8,8′-((3-((2-(methylamino)-3,4-dioxocyclobut-1-en-1-yl)amino)propyl)azanediyl)dioctanoate], the “Parent Lipid Remaining at 24 h” value was 25 ± 4 nmol/g liver tissue.

In the case of `CCCCCCCCC(CCCCCCCC)OC(=O)CCCCCCCN(CCO)CCCCCCCC(=O)OCCCC(CCCCC)CCCCC` [Compound 31], the “Parent Lipid Remaining at 24 h” value is on record as 2 ± 0.6 nmol/g liver tissue.

In the case of `CCCCCCCCC(CCCCCCCC)OC(=O)CCCCCCCN(CCCCCCCC(=O)OCCCC(CCCCC)CCCCC)CCCNc1c(NC)c(=O)c1=O` [Compound 32], the “Parent Lipid Remaining at 24 h” value came to 69 ± 17 nmol/g liver tissue.

For `CCCCCC(CCCCC)CCCOC(=O)CCCCCCCN(CCO)CCCCCCCC(=O)OCCCC(CCCCC)CCCCC` [Compound 33], the “Parent Lipid Remaining at 24 h” value is recorded as 0.5 ± 0.3 nmol/g liver tissue.

As to `CCCCCC(CCCCC)CCCOC(=O)CCCCCCCN(CCCCCCCC(=O)OCCCC(CCCCC)CCCCC)CCCNc1c(NC)c(=O)c1=O` [Compound 34], the “Parent Lipid Remaining at 24 h” value was found to be 12 ± 2 nmol/g liver tissue.

With `CCCCCCCCC(CCCCCCCC)OC(=O)CCCCCCCN(CCO)CCCCCCCC(=O)OCCC1CCC(CC)CC1` (stereo not shown) [Compound 35], the “Parent Lipid Remaining at 24 h” value was less than 0.1 nmol/g liver tissue.

For `CCCCCCCCC(CCCCCCCC)OC(=O)CCCCCCCN(CCO)CCCCCCCC(=O)OCCC1CCC(CC)C1` (stereo not shown) [Compound 37], the “Parent Lipid Remaining at 24 h” value was less than 0.1 nmol/g liver tissue.

On to `CCCCCCCCC(CCCCCCCC)OC(=O)CCCCCCCN(CCCCCCCC(=O)OCCC1CCC(CCC)CC1)CCCNc1c(NC)c(=O)c1=O` (stereo not shown) [Compound 39], for which the “Parent Lipid Remaining at 24 h” value turned out to be 4 ± 1 nmol/g liver tissue.

Consider `CCCCCCCCC(CCCCCCCC)OC(=O)CCCCCCCN(CCCCCCCC(=O)OCCC1CCC(CC)C1)CCCNc1c(NC)c(=O)c1=O` (stereo not shown) [Compound 40], for which the “Parent Lipid Remaining at 24 h” value is 3 ± 0.3 nmol/g liver tissue.

On to `CCCCCC(CCCCC)CCOC(=O)CCCCCCCN(CCCCCCCC(=O)OCCC(CCC)CCC)CCCNc1c(NC)c(=O)c1=O` [Compound 51], for which the “Parent Lipid Remaining at 24 h” value turned out to be 4 ± 0.6 nmol/g liver tissue.

For `CCCCC(CCCC)CCOC(=O)CCCCCCCN(CCCCCCCC(=O)OCCC(CCC)CCC)CCCNc1c(NC)c(=O)c1=O` [Compound 52], the “Parent Lipid Remaining at 24 h” value is less than 1 nmol/g liver tissue.

With `CCCC(CCC)CCOC(=O)CCCCCCCN(CCCCCCCC(=O)OCCC(CCC)CCC)CCCNc1c(NC)c(=O)c1=O` [Compound 53], the “Parent Lipid Remaining at 24 h” value is recorded as less than 1 nmol/g liver tissue.

Take `CCCCCC(CCCCC)CCOC(=O)CCCCCCCN(CCCCCCCC(=O)OCCC(CCCC)CCCC)CCCNc1c(NC)c(=O)c1=O` [Compound 54, 3-Butylheptyl 8-((3-((2-(methylamino)-3,4-dioxocyclobut-1-en-1-yl)amino)propyl)(8-oxo-8-((3-pentyloctyl)oxy)octyl)amino)octanoate]: the “Parent Lipid Remaining at 24 h” value is 12 ± 1 nmol/g liver tissue.

As to `CCCCCC(CCCCC)CCOC(=O)CCCCCCCN(CCCCCCCC(=O)OC(CCCCC)CCCCC)CCCNc1c(NC)c(=O)c1=O` [Compound 57], the “Parent Lipid Remaining at 24 h” value was determined as 12 ± 1 nmol/g liver tissue.

Consider `CCCCCC(CCCCC)CCOC(=O)CCCCCCCN(CCCCCCCC(=O)OC(CCCC)CCCC)CCCNc1c(NC)c(=O)c1=O` [Compound 58], for which the “Parent Lipid Remaining at 24 h” value is given as 15 ± 2 nmol/g liver tissue.

Regarding `CCCCCCC(CCCCCC)OC(=O)CCCCCCCN(CCCCCCCC(=O)OCCC(CCCC)CCCC)CCCNc1c(NC)c(=O)c1=O` [Compound 60], the “Parent Lipid Remaining at 24 h” value is 8.5 ± 0.6 nmol/g liver tissue.

Take `CCCCCC(CCCCC)OC(=O)CCCCCCCN(CCCCCCCC(=O)OCCC(CCCC)CCCC)CCCNc1c(NC)c(=O)c1=O` [Compound 61]: the “Parent Lipid Remaining at 24 h” value is recorded as 5.1 ± 0.8 nmol/g liver tissue.

For the molecule `CCCCC(CCCC)CCOC(=O)CCCCCCCN(CCCCCCCC(=O)OC(CCCC)CCCC)CCCNc1c(NC)c(=O)c1=O` [Compound 62], the “Parent Lipid Remaining at 24 h” value is given as 1.8 ± 0.6 nmol/g liver tissue.

For `CCCCCCCC(CCCCCCC)OC(=O)CCCCCCCN(CCCCCCCC(=O)OCCC(CCC)CCC)CCCNc1c(NC)c(=O)c1=O` [Compound 63], the “Parent Lipid Remaining at 24 h” value is on record as 8.9 ± 2.8 nmol/g liver tissue.

`CCCCCCC(CCCCCC)OC(=O)CCCCCCCN(CCCCCCCC(=O)OCCC(CCC)CCC)CCCNc1c(NC)c(=O)c1=O` [Compound 64]: the “Parent Lipid Remaining at 24 h” value is given as 4.9 ± 0.9 nmol/g liver tissue.

Take `CCCCCC(CCCCC)OC(=O)CCCCCCCN(CCCCCCCC(=O)OCCC(CCC)CCC)CCCNc1c(NC)c(=O)c1=O` [Compound 65]: the “Parent Lipid Remaining at 24 h” value was 0.9 ± 0.3 nmol/g liver tissue.

As to `CCCCC(CCCC)OC(=O)CCCCCCCN(CCCCCCCC(=O)OCCC(CCC)CCC)CCCNc1c(NC)c(=O)c1=O` [Compound 66], the “Parent Lipid Remaining at 24 h” value is given as 0.1 ± 0.03 nmol/g liver tissue.

For the origin of these results see patent publication US20240207374A1, “LIPID NANOPARTICLES CONTAINING POLYNUCLEOTIDES ENCODING GLUCOSE-6-PHOSPHATASE AND USES THEREOF” (ModernaTX, Inc., priority 2021, published 2024).
